For one data set, the target named is T1, rh integrin α4β7 (Homo sapiens, UniProt P13612+P26010).
T1 construct: purchased R&D Systems 5397-A30
In words: α4β7-MAdCAM Competition ELISA. In kind it is binding. The method in brief:
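Competition read-out was A450 after anti-human IgG1-HRP and TMB detection of bound recombinant human MAdCAM-1 (10 nM final). Peptides were serially diluted 3-fold from a final 10 μM and equilibrated 1 h at room temperature on nickel-captured α4β7 (800 ng/well). The buffer was Tris pH 7.6 with 1 mM Mn2+ or Mg2+.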

Data set [1] is described as follows: Dithiothreitol (DTT) Redox Stability Assay. In kind it is physicochemical. To be noted: Table 4-C, t1/2, 0.5 mM DTT. How it is done: For each peptide tested, the DTT stability assay was conducted by adding 5 μl of a 10 mM peptide stock solution in DMSO to 1 ml of 100 mM Tris-Cl, pH 7.5 (final peptide concentration is 50 μM). At time 0 min, 5 ul of a freshly thawed 100 mM DTT solution was added to the incubation tube containing the peptide, such that the final DTT concentration was 0.5 mM. The reactions were incubated at room temperature. At different time points up to 120 minutes (20 min, 40 min, 80 min, 120 min), 50 ul aliquots were removed, and the reaction was quenched by adding 10 μl of 5M acetic acid. To measure disappearance of the parent peptide, the quenched samples (30 μl) were analyzed by reverse phase HPLC and UV absorbance at 220 nm. The fraction oxidized remaining was graphed versus time, and half-lives were calculated by fitting to a first-order exponential decay equation using Excel.

Data set [2] in a line: Simulated Gastric Fluid (SGF) Assay. In kind it is in vitro ADME. Particulars: pig, simulated gastric fluid (SGF) with porcine pepsin, pH 2; Table 4-C, t1/2. How it is done:
SGF was prepared by adding 20 mg NaCl, 32 mg porcine pepsin (MP Biochemicals, catalog 02102599), and 70 μl HCl to 10 ml water (final pH=2). Aliquots of SGF (0.5 ml each) were pre-warmed at 37° C. For each peptide tested, to start the reaction, 1 μl of peptide stock solution (10 mM in DMSO) was added to 0.5 ml SGF and thoroughly mixed such that the final peptide concentration was 20 μM. The reactions were incubated at 37° C. with gentle shaking. At each time point (0, 15, 30, 60 min), 50 μl aliquots were removed and added to 200 ul acetonitrile containing 0.1% formic acid to quench the reaction. Samples were stored at 4° C. until the end of the experiment and centrifuged at 10,000 rpm for 5 minutes. Aliquots of the supernatant were removed, diluted 1:1 into distilled water containing internal standard, and analyzed by LCMS/MS. Percent remaining at each timepoint was calculated based on the peak area response ratio of test compound to internal standard. Time 0 was set to 100%, and all later timepoints were calculated relative to time 0. Half-lives were calculated by fitting to a first-order exponential decay equation using GraphPad.

Setting [3] is: Table 4-B, read-out: ELISA α4β7 IC50.

Like-named read-outs stand apart in the source and are kept apart here. Numbered stars: 1 amine (or outer) side, 2 acyl side, 3 side chain; on linkers, the order of the positions; unused ones are H or OH. Bridge positions count the residues as written; N and C are the ends. Square brackets hold non-standard residues; d marks the D form. Peptide text beside a SMILES is read from it. I, II: the chains in the order shown. X2 = O=C(CCOCCOCCOCCOCCOCCOCCOCCOCCOCCOCCOCCOCCOCCOCCOCCOCCOCCOCCOCCOCCOCCOCCOCCOCCOCCC(=O)[*:2])[*:1]; Phe(4-tBu) = CC(C)(C)c1ccc(C[C@H](N)C(=O)O)cc1; 2Nal = N[C@@H](Cc1ccc2ccccc2c1)C(=O)O; Diglycolyl = O=C(COCC(=O)[*:2])[*:1]; NMeR = CN[C@@H](CCCNC(=N)N)C(=O)O; β3hE = N[C@@H](CCC(=O)O)CC(=O)O; Pen = CC(C)(S)[C@H](N)C(=O)O Where only a bound is given, the exact number is not on record here.

T1 sequence (P13612 34-977 limits assumed): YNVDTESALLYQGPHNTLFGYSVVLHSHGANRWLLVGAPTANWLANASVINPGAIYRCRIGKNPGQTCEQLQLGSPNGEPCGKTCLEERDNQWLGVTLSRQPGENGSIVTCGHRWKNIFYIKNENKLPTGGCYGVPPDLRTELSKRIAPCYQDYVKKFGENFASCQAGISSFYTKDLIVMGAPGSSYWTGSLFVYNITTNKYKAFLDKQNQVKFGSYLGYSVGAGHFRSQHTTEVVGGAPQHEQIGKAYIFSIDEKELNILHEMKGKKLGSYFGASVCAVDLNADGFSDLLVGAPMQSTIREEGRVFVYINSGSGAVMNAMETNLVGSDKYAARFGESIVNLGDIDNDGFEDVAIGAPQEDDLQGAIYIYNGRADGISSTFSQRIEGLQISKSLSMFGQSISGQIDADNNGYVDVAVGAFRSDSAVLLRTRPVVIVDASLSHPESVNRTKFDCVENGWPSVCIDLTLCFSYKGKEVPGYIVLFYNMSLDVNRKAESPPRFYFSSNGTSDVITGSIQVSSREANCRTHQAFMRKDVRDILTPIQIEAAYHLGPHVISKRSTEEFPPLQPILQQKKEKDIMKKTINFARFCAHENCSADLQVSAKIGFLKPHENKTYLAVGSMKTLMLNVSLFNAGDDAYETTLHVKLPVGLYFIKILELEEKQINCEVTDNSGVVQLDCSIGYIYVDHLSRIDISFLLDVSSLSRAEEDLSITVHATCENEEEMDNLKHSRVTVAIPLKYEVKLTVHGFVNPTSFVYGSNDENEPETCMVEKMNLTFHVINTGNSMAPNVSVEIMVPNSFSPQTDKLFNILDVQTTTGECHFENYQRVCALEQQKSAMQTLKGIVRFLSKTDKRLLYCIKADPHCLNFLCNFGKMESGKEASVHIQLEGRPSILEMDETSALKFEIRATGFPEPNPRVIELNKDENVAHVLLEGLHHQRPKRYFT
T1 sequence (P26010 20-723 limits assumed): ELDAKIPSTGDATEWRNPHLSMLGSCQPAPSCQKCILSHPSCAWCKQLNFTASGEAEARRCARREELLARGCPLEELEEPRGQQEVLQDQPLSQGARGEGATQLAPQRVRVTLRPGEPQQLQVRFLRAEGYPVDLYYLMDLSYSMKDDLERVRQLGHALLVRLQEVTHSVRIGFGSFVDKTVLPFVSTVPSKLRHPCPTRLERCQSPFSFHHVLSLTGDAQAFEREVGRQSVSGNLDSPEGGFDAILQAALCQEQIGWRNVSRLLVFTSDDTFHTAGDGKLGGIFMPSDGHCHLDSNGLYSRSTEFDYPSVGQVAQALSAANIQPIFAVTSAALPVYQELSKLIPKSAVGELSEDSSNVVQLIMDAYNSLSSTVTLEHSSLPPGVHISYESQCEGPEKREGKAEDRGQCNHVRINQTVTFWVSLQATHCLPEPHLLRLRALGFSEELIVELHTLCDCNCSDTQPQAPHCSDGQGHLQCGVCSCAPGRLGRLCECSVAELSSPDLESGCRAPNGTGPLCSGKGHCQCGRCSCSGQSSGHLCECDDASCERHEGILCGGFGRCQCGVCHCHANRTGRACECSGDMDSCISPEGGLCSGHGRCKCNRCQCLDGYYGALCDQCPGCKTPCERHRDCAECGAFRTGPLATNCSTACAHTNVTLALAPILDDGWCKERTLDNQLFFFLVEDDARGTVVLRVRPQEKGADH

As for `CC(=O)N[C@@H]1C(=O)N(C)[C@@H](CCCNC(=N)N)C(=O)N[C@@H](CO)C(=O)N[C@@H](CC(=O)O)C(=O)N[C@@H]([C@@H](C)O)C(=O)N[C@@H](CC(C)C)C(=O)N[C@H](C(=O)N[C@@H](Cc2ccc(C(C)(C)C)cc2)C(=O)N[C@@H](CCC(=O)O)CC(=O)N[C@H](CCCCN)C(N)=O)C(C)(C)SSC1(C)C` [compound 153] (Ac-[Pen][NMeR]SDTL[Pen][Phe(4-tBu)][β3hE][dK]-NH2; disulfide 1-7), the IC50 on rh integrin α4β7 (Table 3-B, Potency (α4β7), range classes, read-out: α4β7 ELISA IC50) was 10 to 25 nM.
On to `CC(=O)N[C@H]1CSSC[C@@H](C(=O)NCC(=O)N[C@@H](CCC(=O)O)C(N)=O)NC(=O)[C@H](CC(C)C)NC(=O)[C@H]([C@@H](C)O)NC(=O)[C@H](CC(=O)O)NC(=O)[C@H](CO)NC(=O)[C@H](CCCNC(=N)N)NC1=O` [compound 194, Ac-C-R-S-D-T-L-C-G-E-NH2] (Ac-CRSDTLCGE-NH2; disulfide 1-7), for which the “DTT Min” value in data set [1] amounted to 5.5 min. For the same compound, the IC50 on rh integrin α4β7 (setting [3]) came out at 97 nM.
For `CC(=O)N[C@H]1CSSC[C@@H](C(N)=O)NC(=O)[C@H](CC(C)C)NC(=O)[C@H]([C@@H](C)O)NC(=O)[C@H](CC(=O)O)NC(=O)[C@H](CO)NC(=O)[C@H](CCCNC(=N)N)NC1=O` [compound 195, Ac-C-R-S-D-T-L-C-NH2] (Ac-CRSDTLC-NH2; disulfide 1-7) the same measures were 4.7 min and 97 nM.
As to `CC(=O)N[C@H]1CSSC[C@@H](C(=O)NCC(=O)N[C@@H](CCC(=O)O)C(=O)N[C@@H](CCCCN)C(N)=O)NC(=O)[C@H](CC(C)C)NC(=O)[C@H]([C@@H](C)O)NC(=O)[C@H](CC(=O)O)NC(=O)[C@H](CO)NC(=O)[C@H](CCCNC(=N)N)NC1=O` [compound 196, Ac-C-R-S-D-T-L-C-G-E-K-NH2] (Ac-CRSDTLCGEK-NH2; disulfide 1-7), the 50% inhibitory concentration (IC50) on rh integrin α4β7 (setting [3]) is 87 nM.
Still for that read-out and setting: the same measure for `CC(=O)N[C@H]1CSSC[C@@H](C(=O)NCC(=O)N[C@@H](CCC(=O)O)C(=O)N[C@@H](CCCCNC(=O)CCOCCOCCOCCOCCOCCOCCOCCOCCOCCOCCOCCOCCOCCOCCOCCOCCOCCOCCOCCOCCOCCOCCOCCOCCOCCC(=O)NCCCC[C@H](NC(=O)[C@H](CCC(=O)O)NC(=O)CNC(=O)[C@@H]2CSSC[C@H](NC(C)=O)C(=O)N[C@@H](CCCNC(=N)N)C(=O)N[C@@H](CO)C(=O)N[C@@H](CC(=O)O)C(=O)N[C@@H]([C@@H](C)O)C(=O)N[C@@H](CC(C)C)C(=O)N2)C(N)=O)C(N)=O)NC(=O)[C@H](CC(C)C)NC(=O)[C@H]([C@@H](C)O)NC(=O)[C@H](CC(=O)O)NC(=O)[C@H](CO)NC(=O)[C@H](CCCNC(=N)N)NC1=O` [compound 197, (Ac-C-R-S-D-T-L-C-G-E-K-NH2)2-PEG25] (I: Ac-CRSDTLCGEK-NH2 / II: Ac-CRSDTLCGEK-NH2; disulfide I:1-I:7, II:1-II:7; linker I:10-II:10 via X2): 36 nM.
Take `CC(=O)N[C@H]1CSSC[C@@H](C(=O)NCC(=O)N[C@@H](CCC(=O)O)C(N)=O)NC(=O)[C@H](CC(C)C)NC(=O)[C@H]([C@@H](C)O)NC(=O)[C@H](CC(=O)O)NC(=O)[C@H](CO)NC(=O)[C@H](CCCNC(=N)N)N(C)C1=O` [compound 198, Ac-C-N-Me-R-S-D-T-L-C-G-E-NH2] (Ac-C[NMeR]SDTLCGE-NH2; disulfide 1-7): the “DTT Min” value in data set [1] was 4.5 min. The IC50 on rh integrin α4β7 (setting [3]) came out at 20 nM.
In the case of `CC(=O)N[C@H]1CSSC[C@@H](C(=O)NCC(=O)N[C@@H](CCC(=O)O)C(=O)N[C@@H](CCCCN)C(=O)O)NC(=O)[C@H](CC(C)C)NC(=O)[C@H]([C@@H](C)O)NC(=O)[C@H](CC(=O)O)NC(=O)[C@H](CO)NC(=O)[C@H](CCCNC(=N)N)N(C)C1=O` [compound 199, Ac-C-N-Me-R-S-D-T-L-C-G-E-K-OH] (Ac-C[NMeR]SDTLCGEK-OH; disulfide 1-7), in data set [2], the half-life at 20 μM was more than 6 h. The IC50 on rh integrin α4β7 (setting [3]) was determined as 58 nM.
On to `CC(=O)N[C@H]1CSSC[C@@H](C(=O)NCC(=O)N[C@@H](CCC(=O)O)C(=O)N[C@@H](CCCCNC(=O)COCC(=O)NCCCC[C@H](NC(=O)[C@H](CCC(=O)O)NC(=O)CNC(=O)[C@@H]2CSSC[C@H](NC(C)=O)C(=O)N(C)[C@@H](CCCNC(=N)N)C(=O)N[C@@H](CO)C(=O)N[C@@H](CC(=O)O)C(=O)N[C@@H]([C@@H](C)O)C(=O)N[C@@H](CC(C)C)C(=O)N2)C(=O)O)C(=O)O)NC(=O)[C@H](CC(C)C)NC(=O)[C@H]([C@@H](C)O)NC(=O)[C@H](CC(=O)O)NC(=O)[C@H](CO)NC(=O)[C@H](CCCNC(=N)N)N(C)C1=O` [compound 201, (Ac-C-N-Me-R-S-D-T-L-C-G-E-K-OH)2-DIG] (I: Ac-C[NMeR]SDTLCGEK-OH / II: Ac-C[NMeR]SDTLCGEK-OH; disulfide I:1-I:7, II:1-II:7 (inferred); linker I:10-II:10 via Diglycolyl (inferred)), for which, in data set [2], the half-life at 20 μM is more than 6 h. For the same compound, the IC50 on rh integrin α4β7 (setting [3]) is 1 nM.
On to `CC(=O)N[C@H]1CSSC(C)(C)[C@@H](C(=O)N[C@H](CCCCN)C(N)=O)NC(=O)[C@H](CC(C)C)NC(=O)[C@H]([C@@H](C)O)NC(=O)[C@H](CC(=O)O)NC(=O)[C@H](CO)NC(=O)[C@H](CCCNC(=N)N)N(C)C1=O` [compound 202, Ac-C-N-Me-R-S-D-T-L-Pen-k-NH2] (Ac-C[NMeR]SDTL[Pen][dK]-NH2; disulfide 1-7), for which the “DTT Min” value in data set [1] is 42 min. Also, the IC50 on rh integrin α4β7 (setting [3]) worked out at 87 nM.
Take `CC(=O)N[C@H]1CSSC(C)(C)[C@@H](C(=O)N[C@@H](CCC(=O)O)C(=O)N[C@H](CCCCNC(=O)COCC(=O)NCCCC[C@@H](NC(=O)[C@H](CCC(=O)O)NC(=O)[C@H]2NC(=O)[C@H](CC(C)C)NC(=O)[C@H]([C@@H](C)O)NC(=O)[C@H](CC(=O)O)NC(=O)[C@H](CO)NC(=O)[C@H](CCCNC(=N)N)N(C)C(=O)[C@@H](NC(C)=O)CSSC2(C)C)C(N)=O)C(N)=O)NC(=O)[C@H](CC(C)C)NC(=O)[C@H]([C@@H](C)O)NC(=O)[C@H](CC(=O)O)NC(=O)[C@H](CO)NC(=O)[C@H](CCCNC(=N)N)N(C)C1=O` [compound 205, (Ac-C-N-Me-R-S-D-T-L-Pen-E-k-NH2)2-DIG] (I: Ac-C[NMeR]SDTL[Pen]E[dK]-NH2 / II: Ac-C[NMeR]SDTL[Pen]E[dK]-NH2; disulfide I:1-I:7, II:1-II:7 (inferred); linker I:9-II:9 via Diglycolyl (inferred)): the “DTT Min” value in data set [1] was found to be 42 min. The IC50 at rh integrin α4β7 (setting [3]) came out at 2.4 nM.
Take `CC(=O)N[C@@H]1C(=O)N(C)[C@@H](CCCNC(=N)N)C(=O)N[C@@H](CO)C(=O)N[C@@H](CC(=O)O)C(=O)N[C@@H]([C@@H](C)O)C(=O)N[C@@H](CC(C)C)C(=O)N[C@H](C(=O)N[C@@H](Cc2ccc3ccccc3c2)C(=O)N[C@@H](CCC(=O)O)C(=O)N[C@H](CCCCN)C(N)=O)C(C)(C)SSC1(C)C` [compound 210, Ac-Pen-N-Me-R-S-D-T-L-Pen-2-Nal-E-k-NH2] (Ac-[Pen][NMeR]SDTL[Pen][2Nal]E[dK]-NH2; disulfide 1-7): the “DTT Min” value in data set [1] is more than 120 min. Besides, on rh integrin α4β7 (setting [3]), the IC50 was determined as 11 nM.
`CC(=O)N[C@@H]1C(=O)N(C)[C@@H](CCCNC(=N)N)C(=O)N[C@@H](CO)C(=O)N[C@@H](CC(=O)O)C(=O)N[C@@H]([C@@H](C)O)C(=O)N[C@@H](CC(C)C)C(=O)N[C@H](C(=O)N[C@@H](Cc2c[nH]c3ccccc23)C(=O)N[C@@H](CCC(=O)O)CC(=O)N[C@H](CCCCNC(=O)COCC(=O)NCCCC[C@@H](NC(=O)C[C@H](CCC(=O)O)NC(=O)[C@H](Cc2c[nH]c3ccccc23)NC(=O)[C@H]2NC(=O)[C@H](CC(C)C)NC(=O)[C@H]([C@@H](C)O)NC(=O)[C@H](CC(=O)O)NC(=O)[C@H](CO)NC(=O)[C@H](CCCNC(=N)N)N(C)C(=O)[C@@H](NC(C)=O)C(C)(C)SSC2(C)C)C(N)=O)C(N)=O)C(C)(C)SSC1(C)C` [compound 213, [Ac-Pen-(N-Me-Arg)-Ser-Asp-Thr-Leu-Pen-Trp-(β-homoGlu)-(D-Lys)-NH2]2-DIG] (I: Ac-[Pen][NMeR]SDTL[Pen]W[β3hE][dK]-NH2 / II: Ac-[Pen][NMeR]SDTL[Pen]W[β3hE][dK]-NH2; disulfide I:1-I:7, II:1-II:7; linker I:10-II:10 via Diglycolyl) had a half-life at 20 μM in data set [2] of more than 3 h. Also, the IC50 at rh integrin α4β7 (setting [3]) stood at 4.7 nM.

The values above are taken from patent publication US9809623B2, “α4β7 peptide monomer and dimer antagonists” (Protagonist Therapeutics, Inc., priority 2014, dated 2017).
